Legend:
Format in all cases: cell-based, human
[1] = tested on: Class 2 MDV3100- and ARN-509-resistant cell lines; test: Proliferation assay (CellTiter-Glo), agonist and antagonist mode; conditions: for Agonist Proliferation Assay (% Viability): Class 2, 7 days; for viability at 0.0001 µM: Homo sapiens, 168 h, read-out: Antagonist Proliferation Assay (% Viability)
[2] = tested on: Class 2 resistant cell lines; test: Transcriptional reporter assay (probasin-luciferase); conditions: Class 2
Method: (§1) With the exception of the LNCaP/AR(cs)-Luc cells that contain an integrated androgen responsive reporter, cells were transiently transfected using Lipofectin® (Life Technologies) according to the manufacturer's protocol. […] Following transfection, the cells were incubated for 4 hours.
(§2) Following 48 hour incubation the medium was removed and the cells were lysed in 40 μL of lysis buffer (25 mM Tris Phosphate, 2 mM CDTA, 10% Glycerol, 0.5% Triton X-100, 2 mM DTT).

LNCaP/AR(cs) cells [3] = test: Proliferation assay (CellTiter-Glo), agonist and antagonist mode; conditions: for viability at 0.0001 µM: Homo sapiens, LNCaP/AR, 168 h, read-out: Antagonist Proliferation Assay (% Viability); for Agonist Proliferation Assay (% Viability): LNCaP/AR(cs), 7 days
LNCaP cells [4] = test: Transcriptional reporter assay (probasin-luciferase)
Method: as §1, §2

[5] = tested on: Class 1 ARN-509- and MDV3100-resistant cell lines; test: Proliferation assay (CellTiter-Glo), agonist and antagonist mode; conditions: for Agonist Proliferation Assay (% Viability): Class 1, 7 days; for viability at 0.0001 µM: Homo sapiens, 168 h, read-out: Antagonist Proliferation Assay (% Viability)
LNCaP/AR(cs) cells [6] = test: Transcriptional reporter assay (probasin-luciferase)
Method: as §1, §2

[7] = tested on: Class 1 resistant cell lines; test: as above; conditions: Class 1
Method: as §1, §2

LNCaP cells [8] = test: Proliferation assay (CellTiter-Glo), agonist and antagonist mode; conditions: for viability at 0.0001 µM: Homo sapiens, 168 h, read-out: Antagonist Proliferation Assay (% Viability); for Agonist Proliferation Assay (% Viability): 7 days
LNCaP ARN-509r2 cells = test: Endogenous gene transcriptional assay (real-time PCR of androgen responsive genes); conditions: 1 nM R1881 or 30 μM compound, vehicle=1.00
Method: (§3) Total RNA was isolated using the Aurum™ total RNA isolation kit (BIO-RAD, Hercules, Calif.). RNA (1 μg) was reverse transcribed using the iScript cDNA synthesis kit (BIO-RAD, Hercules, Calif.) to produce cDNA. Real-time PCR was performed using the Applied Biosystems 7900HT instrument and SYBR Green PCR Master Mix (Applied Biosystems, Foster City, Calif.). PCR reactions were performed in 6 μL according to the manufacturer's protocol and a thermocycle protocol of 95° C. for 10 minutes followed by 40 cycles of 95° C. for 15 seconds and 58° C. for 1 minute. Androgen responsive gene (PSA, SLUG, TMPRSS2, STEAP4, FKBP5, ORM1, NOV, FASN, NKX3.1, AMIGO2, BDNF, CAMK2N1, HPGD, NCAPD3, PLD1) expression was normalized to GAPDH expression and expressed relative to vehicle treatment of the parental cell line.
(§4) Gene expression was normalized to GAPDH as described above.

LNCaP/AR-Luc cells = test: as above; conditions: 1 nM R1881 or 30 μM compound, vehicle=1.00
Method: as §3, §4

LNCaP cells [9] = test: as above; conditions: 1 nM R1881 or 30 μM compound, vehicle=1.00
Method: as §3, §4

LNCaP ARN-509r1 cells = test: as above; conditions: 1 nM R1881 or 30 μM compound, vehicle=1.00
Method: as §3, §4

AR in LNCaP/AR(cs) cells = test: AR chromatin immunoprecipitation (ChIP) of AR target genes; conditions: 1 nM R1881, 4 hours
Text: The samples were amplified on the ABI 7900HT instrument.

LNCaP/AR(cs) cells [10] = test: Endogenous gene transcriptional assay (real-time PCR of androgen responsive genes)
Method: as §3, §4

[11] = [Antagonists] = 50 μM in presence of R1881
[12] = Table 4A, 1 nM R1881 or 30 μM compound, vehicle=1.00
[13] = Tables 9A/9B, 1 nM R1881, vehicle=1.00

Structure (SMILES): CC(O)(CS(=O)(=O)c1ccc(F)cc1)C(=O)Nc1ccc(C#N)c(C(F)(F)F)c1 (stereo not shown) [Bicalutamide, bicalutamide]
- Agonist Proliferation Assay (% Viability) ([1]; [Antagonists] = 10 μM): + (‘+’ = <30)
- viability at 0.0001 µM [1]: > 30%
- Agonist Transcriptional Reporter Assay (% Max Activity) ([2]; [Antagonists] = 50 μM): + (‘+’ = <5)
- Antagonist Transcriptional Reporter Assay (% Max Activity) [2, 11]: + (‘+’ = <5)
- viability at 0.0001 µM (LNCaP/AR(cs) cells [3]): < 30%
- Agonist Proliferation Assay (% Viability) (LNCaP/AR(cs) cells [3]; [Antagonists] = 10 μM): + (‘+’ = <30)
- Agonist Transcriptional Reporter Assay (% Max Activity) (LNCaP cells [4]; [Antagonists] = 50 μM): + (‘+’ = <5)
- Antagonist Transcriptional Reporter Assay (% Max Activity) (LNCaP cells [4]; [11]): + (‘+’ = <5)
- Agonist Proliferation Assay (% Viability) ([5]; [Antagonists] = 10 μM): ++ (‘++’ = >30)
- viability at 0.0001 µM [5]: > 30%
- Agonist Transcriptional Reporter Assay (% Max Activity) (LNCaP/AR(cs) cells [6]; [Antagonists] = 50 μM): + (‘+’ = <5)
- Antagonist Transcriptional Reporter Assay (% Max Activity) (LNCaP/AR(cs) cells [6]; [11]): + (‘+’ = <5)
- Agonist Transcriptional Reporter Assay (% Max Activity) ([7]; [Antagonists] = 50 μM): ++ (‘++’ = >5)
- Antagonist Transcriptional Reporter Assay (% Max Activity) [7, 11]: ++ (‘++’ = >5)
- viability at 0.0001 µM (LNCaP cells [8]): < 30%
- Agonist Proliferation Assay (% Viability) (LNCaP cells [8]; [Antagonists] = 10 μM): + (‘+’ = <30)

Structure (SMILES): C[C@]1(O)CC[C@H]2[C@@H]3CCC4=CC(=O)CCC4=C3C=C[C@@]21C [R1881, methyltrienolone]
- AMIGO2 gene expression (LNCaP ARN-509r2 cells): 0.55
- BDNF gene expression (LNCaP ARN-509r2 cells): 0.47
- CAM2KN1 gene expression (LNCaP ARN-509r2 cells): 0.02
- FASN gene expression (LNCaP ARN-509r2 cells): 4.82
- FKBP5 gene expression (LNCaP ARN-509r2 cells): 48.50
- HPGD gene expression (LNCaP ARN-509r2 cells): 59.30
- NCAPD3 gene expression (LNCaP ARN-509r2 cells): 54.95
- NKX3.1 gene expression (LNCaP ARN-509r2 cells): 10.20
- NOV gene expression (LNCaP ARN-509r2 cells): 0.07
- ORM1 gene expression (LNCaP ARN-509r2 cells): 625.99
- PLD1 gene expression (LNCaP ARN-509r2 cells): 0.02
- PSA gene expression (LNCaP ARN-509r2 cells): 7.89
- SLUG gene expression (LNCaP ARN-509r2 cells): 77.17
- STEAP4 gene expression (LNCaP ARN-509r2 cells): 377.41
- TMPRSS2 gene expression (LNCaP ARN-509r2 cells): 15.14
- AMIGO2 gene expression (LNCaP/AR-Luc cells): 0.54
- BDNF gene expression (LNCaP/AR-Luc cells): 0.18
- CAM2KN1 gene expression (LNCaP/AR-Luc cells): 0.11
- FASN gene expression (LNCaP/AR-Luc cells): 3.48
- FKBP5 gene expression (LNCaP/AR-Luc cells): 20.82
- HPGD gene expression (LNCaP/AR-Luc cells): 2.41
- NCAPD3 gene expression (LNCaP/AR-Luc cells): 17.27
- NKX3.1 gene expression (LNCaP/AR-Luc cells): 11.24
- NOV gene expression (LNCaP/AR-Luc cells): 0.47
- ORM1 gene expression (LNCaP/AR-Luc cells): 7.89
- PLD1 gene expression (LNCaP/AR-Luc cells): 0.15
- PSA gene expression (LNCaP/AR-Luc cells): 2.10
- SLUG gene expression (LNCaP/AR-Luc cells): 48.84
- STEAP4 gene expression (LNCaP/AR-Luc cells): 20.25
- TMPRSS2 gene expression (LNCaP/AR-Luc cells): 3.46
- Agonist Proliferation Assay (% Viability) ([1]; [R1881] = 0.1 nM): 100.0%
- viability at 0.0001 µM [1]: 100%
- Agonist Transcriptional Reporter Assay (% Max Activity) ([2]; [R1881] = 10 nM): >90%
- Antagonist Transcriptional Reporter Assay (% Max Activity) ([2]; [R1881] = 10 nM): >90%
- viability at 0.0001 µM (LNCaP/AR(cs) cells [3]): 100%
- Agonist Proliferation Assay (% Viability) (LNCaP/AR(cs) cells [3]; [R1881] = 0.1 nM): 100.0%
- AMIGO2 gene expression (LNCaP cells [9]): 0.68
- BDNF gene expression (LNCaP cells [9]): 0.40
- CAM2KN1 gene expression (LNCaP cells [9]): 0.13
- FASN gene expression (LNCaP cells [9]): 5.58
- FKBP5 gene expression (LNCaP cells [9]): 54.95
- HPGD gene expression (LNCaP cells [9]): 100.43
- NCAPD3 gene expression (LNCaP cells [9]): 104.69
- NKX3.1 gene expression (LNCaP cells [9]): 30.06
- NOV gene expression (LNCaP cells [9]): 0.15
- ORM1 gene expression (LNCaP cells [9]): 873.10
- PLD1 gene expression (LNCaP cells [9]): 0.02
- PSA gene expression (LNCaP cells [9]): 47.84
- SLUG gene expression (LNCaP cells [9]): 129.79
- STEAP4 gene expression (LNCaP cells [9]): 639.15
- TMPRSS2 gene expression (LNCaP cells [9]): 22.16
- Agonist Transcriptional Reporter Assay (% Max Activity) (LNCaP cells [4]; [R1881] = 10 nM): >90%
- Antagonist Transcriptional Reporter Assay (% Max Activity) (LNCaP cells [4]; [R1881] = 10 nM): >90%
- Agonist Proliferation Assay (% Viability) ([5]; [R1881] = 0.1 nM): 100.0%
- viability at 0.0001 µM [5]: 100%
- Effect of R1881 on proliferation of Class 1 cells ([5]; high concentrations): inhibits proliferation
- Agonist Transcriptional Reporter Assay (% Max Activity) (LNCaP/AR(cs) cells [6]; [R1881] = 10 nM): >90%
- Antagonist Transcriptional Reporter Assay (% Max Activity) (LNCaP/AR(cs) cells [6]; [R1881] = 10 nM): >90%
- AMIGO2 gene expression (LNCaP ARN-509r1 cells): 0.21
- BDNF gene expression (LNCaP ARN-509r1 cells): 0.31
- CAM2KN1 gene expression (LNCaP ARN-509r1 cells): 0.01
- FASN gene expression (LNCaP ARN-509r1 cells): 3.12
- FKBP5 gene expression (LNCaP ARN-509r1 cells): 53.45
- HPGD gene expression (LNCaP ARN-509r1 cells): 61.39
- NCAPD3 gene expression (LNCaP ARN-509r1 cells): 90.51
- NKX3.1 gene expression (LNCaP ARN-509r1 cells): 8.11
- NOV gene expression (LNCaP ARN-509r1 cells): 0.03
- ORM1 gene expression (LNCaP ARN-509r1 cells): 1296.13
- PLD1 gene expression (LNCaP ARN-509r1 cells): 0.03
- PSA gene expression (LNCaP ARN-509r1 cells): 85.63
- SLUG gene expression (LNCaP ARN-509r1 cells): 164.28
- STEAP4 gene expression (LNCaP ARN-509r1 cells): 1184.45
- TMPRSS2 gene expression (LNCaP ARN-509r1 cells): 37.27
- AR DNA binding (ChIP), LNCaP/AR(cs) cells (AR in LNCaP/AR(cs) cells): promoted AR DNA
- Agonist Transcriptional Reporter Assay (% Max Activity) ([7]; [R1881] = 10 nM): >90%
- Antagonist Transcriptional Reporter Assay (% Max Activity) ([7]; [R1881] = 10 nM): >90%
- viability at 0.0001 µM (LNCaP cells [8]): 100%
- Agonist Proliferation Assay (% Viability) (LNCaP cells [8]; [R1881] = 0.1 nM): 100.0%
- AMIGO2 gene expression (LNCaP/AR(cs) cells [10]; [12]): 0.54
- BDNF gene expression (LNCaP/AR(cs) cells [10]; [12]): 0.48
- CAM2KN1 gene expression (LNCaP/AR(cs) cells [10]; [12]): 0.05
- FASN gene expression (LNCaP/AR(cs) cells [10]; [12]): 7.11
- FKBP5 gene expression (LNCaP/AR(cs) cells [10]; [12]): 97.01
- HPGD gene expression (LNCaP/AR(cs) cells [10]; [12]): 183.55
- NCAPD3 gene expression (LNCaP/AR(cs) cells [10]; [12]): 93.05
- NKX3.1 gene expression (LNCaP/AR(cs) cells [10]; [12]): 8.82
- NOV gene expression (LNCaP/AR(cs) cells [10]; [12]): 0.04
- ORM1 gene expression (LNCaP/AR(cs) cells [10]; [12]): 3444.31
- PLD1 gene expression (LNCaP/AR(cs) cells [10]; [12]): 0.02
- PSA gene expression (LNCaP/AR(cs) cells [10]; [12]): 19.16
- SLUG gene expression (LNCaP/AR(cs) cells [10]; [12]): 89.88
- STEAP4 gene expression (LNCaP/AR(cs) cells [10]; [12]): 1314.23
- TMPRSS2 gene expression (LNCaP/AR(cs) cells [10]; [12]): 17.51
- AMIGO2 gene expression (LNCaP/AR(cs) cells [10]; [13]): 0.98
- BDNF gene expression (LNCaP/AR(cs) cells [10]; [13]): 0.86
- CAM2KN1 gene expression (LNCaP/AR(cs) cells [10]; [13]): 0.04
- FASN gene expression (LNCaP/AR(cs) cells [10]; [13]): 4.12
- FKBP5 gene expression (LNCaP/AR(cs) cells [10]; [13]): 100.51
- HPGD gene expression (LNCaP/AR(cs) cells [10]; [13]): 324.60
- NCAPD3 gene expression (LNCaP/AR(cs) cells [10]; [13]): 95.54
- NKX3.1 gene expression (LNCaP/AR(cs) cells [10]; [13]): 12.72
- NOV gene expression (LNCaP/AR(cs) cells [10]; [13]): 0.05
- ORM1 gene expression (LNCaP/AR(cs) cells [10]; [13]): 6987.01
- PLD1 gene expression (LNCaP/AR(cs) cells [10]; [13]): 0.03
- PSA gene expression (LNCaP/AR(cs) cells [10]; [13]): 22.14
- SLUG gene expression (LNCaP/AR(cs) cells [10]; [13]): 91.84
- STEAP4 gene expression (LNCaP/AR(cs) cells [10]; [13]): 1498.46
- TMPRSS2 gene expression (LNCaP/AR(cs) cells [10]; [13]): 35.42
